The target of the data set is T1, P-glycoprotein (P-gp) (Homo sapiens, UniProt P08183).
T1 construct: In-vitro Caco-2 cell monolayers were used here as a model for potential drug absorption related problems and P-gp mediated transport of drugs; endogenous in cells; host or cells: Caco-2 (human colon carcinoma, ATCC)
The experiment in a line: Bidirectional transport of rhodamine123 through Caco-2 monolayers co-incubated with antimalarials (P-gp inhibitory properties). The data set is classed as in vitro ADME. As to conditions: at 100 μM. As for the experimental part: The Caco-2 cells were seeded on 0.6 cm^2 […] Millipore PCF™ filter inserts at the cell density of 65,000 cells/cm^2 as done previously in the lab. Briefly, the cells were grown for 21–24 days to allow full maturation and formation of tight monolayers. The initial experiments were conducted in mid-40s passage cells and repeated in early 80s passage Caco-2 cells. The Trans epithelial electrical resistance (TEER) was measured immediately before and after the experiment using an epithelial voltage/ohm meter and an ENDOHM 12 chamber (World precision instruments, Sarasota, FL). TEER values were measured both before and after the study with readings above 300 Ω.cm^2 considered as acceptable for tight junctions. […] In order to maintain equivalent transport medium (HBSS/HBSS with inhibitor) level both outside and inside the chambers, 300 μL was used as medium in the apical chambers and 600 μL in the basolateral chambers. […] Drugs were co-incubated with MRCP, BCRP and ATP hydrolysis blockers to determine the involvement of other efflux mechanisms. Prior to the experiment, the transport medium, HBSS or HBSS with P-gp inhibitors were pre-incubated with the cells for 30 minutes. Following incubation, inserts were placed in new well plates and donor chamber is replaced with drug or drug with inhibitor and the receiver chamber with blank HBSS or HBSS with inhibitor. Transport medium was collected from the receiver chamber after stirring at time intervals of 30, 60, 90 and 120 minutes and was replaced with the same volume of fresh HBSS, or HBSS with inhibitor, when P-gp inhibitors were used in the study. At the end of the experiment 100 μL of medium was removed from the donor chamber in addition to medium collected from the receiver chamber during the study. The cells were then washed thoroughly in cold (4°C) PBS and cell membranes attached to the inserts were sonicated for 10 minutes in a sonicating water bath and centrifuged at 10,000 g for 10 minutes. Supernatant was frozen at -80°C until assayed. The Papp values of three well plates were determined using methods modified from Artursson’s group as described by Crowe and Lemaire.
CL.vol=Aa/{[Cd0×Vd−[Aa+(Ca×Vs)]−(Ac)×n/nfin]/Vd}
CL.vol = clearance volume (mL), n = time (min), Aa = amount in acceptor compartment at time n (pmols), Cd0 = concentration in donor compartment at time zero (nM), Vd = volume of the donor compartment (mL), Ca = concentration in acceptor compartment at the previous time point (nM), Vs = sample volume of previous time point (mL), Ac = amount of compound associated with the cells (pmol), Nfin = final time point (min). Papp = Apparent permeability (cm/sec) Rate of clearance (mL/min)=CL.vol / n Papp (cm/sec)=Rate of clearance / Surface area (cm^2)
The cleared volume was plotted against time and the slope of the regression line was divided by the surface area to obtain the Papp values. […] Mean Papp for Bas-Ap direction was divided by the Ap-Bas direction to obtain the efflux ratio and values above two were considered as drugs having true efflux transport.

These results are taken from paper PMC4821601, “The Interactions of P-Glycoprotein with Antimalarial Drugs, Including Substrate Affinity, Inhibition and Regulation” (PLoS ONE, 2016).

SMILES strings stand for the structures.

T1 sequence (P08183 whole entry): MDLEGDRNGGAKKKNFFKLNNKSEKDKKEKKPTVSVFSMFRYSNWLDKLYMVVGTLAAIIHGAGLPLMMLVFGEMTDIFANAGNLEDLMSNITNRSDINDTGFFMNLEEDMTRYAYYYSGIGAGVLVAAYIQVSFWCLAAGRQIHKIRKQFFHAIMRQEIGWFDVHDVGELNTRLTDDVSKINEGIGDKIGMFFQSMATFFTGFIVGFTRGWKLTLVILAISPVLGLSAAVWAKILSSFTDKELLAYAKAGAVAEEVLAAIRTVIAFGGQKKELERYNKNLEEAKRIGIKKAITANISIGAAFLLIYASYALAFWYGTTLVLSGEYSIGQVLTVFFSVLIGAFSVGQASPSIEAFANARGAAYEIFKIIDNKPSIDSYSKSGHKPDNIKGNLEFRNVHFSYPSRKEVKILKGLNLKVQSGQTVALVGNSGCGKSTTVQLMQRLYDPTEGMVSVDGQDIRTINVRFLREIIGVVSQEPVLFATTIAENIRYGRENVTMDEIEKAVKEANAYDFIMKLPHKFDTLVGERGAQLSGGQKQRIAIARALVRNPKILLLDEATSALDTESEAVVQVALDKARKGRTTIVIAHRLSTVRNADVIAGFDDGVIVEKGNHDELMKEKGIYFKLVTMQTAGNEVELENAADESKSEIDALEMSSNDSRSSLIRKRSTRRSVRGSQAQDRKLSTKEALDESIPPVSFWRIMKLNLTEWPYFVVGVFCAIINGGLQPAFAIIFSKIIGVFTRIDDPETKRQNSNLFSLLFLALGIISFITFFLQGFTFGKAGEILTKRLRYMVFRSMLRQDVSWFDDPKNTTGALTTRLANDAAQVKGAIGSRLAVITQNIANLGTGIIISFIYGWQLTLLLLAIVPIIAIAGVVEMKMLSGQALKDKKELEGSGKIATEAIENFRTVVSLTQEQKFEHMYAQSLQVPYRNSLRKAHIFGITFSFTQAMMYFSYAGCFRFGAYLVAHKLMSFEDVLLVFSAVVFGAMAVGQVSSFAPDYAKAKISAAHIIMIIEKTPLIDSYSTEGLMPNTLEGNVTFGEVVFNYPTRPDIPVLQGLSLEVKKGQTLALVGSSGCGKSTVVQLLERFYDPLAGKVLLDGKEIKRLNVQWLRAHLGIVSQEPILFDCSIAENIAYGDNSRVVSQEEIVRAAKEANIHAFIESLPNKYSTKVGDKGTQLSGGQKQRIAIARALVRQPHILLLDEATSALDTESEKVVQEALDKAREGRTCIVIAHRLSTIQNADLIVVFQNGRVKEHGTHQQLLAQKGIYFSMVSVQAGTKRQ

On to `OC(c1cc(C(F)(F)F)nc2c(C(F)(F)F)cccc12)C1CCCCN1` (centres unmarked) [MQ, mefloquine], for which the P-gp inhibitory properties result is given as “P-gp inhibitory properties”. Besides, the inhibition (in general, the change of the read-out against control, counted positive when it falls) at 120 min, 100 µM (human, Caco-2 cell monolayers, probe rhodamine 123, read-out: inhibition of efflux driven transport) was around 50%.
